This passage reports Kd and inhibition results from paper PMC12751012, “Nanoscale Direct-to-Biology Optimization and Structural Insights into Selective S. aureus TrmD Inhibitors” (Journal of Medicinal Chemistry, 2025).

Values joined by “and” are separate entries in the source; they are usually repeats but may differ in a detail not shown here. Identical values can stand only once. Counter-ions that a name gives are not always drawn. Like-named read-outs stand apart in the source and are kept apart here. Bounds are passed on as bounds.

Format in all cases: binding
Experiment [1] deals with T1, S. aureus TrmD (Staphylococcus aureus, UniProt Q2FZ43).
T1 construct: made in house; host or cells: E. coli BL21
T1 sequence (Q2FZ43 1-245): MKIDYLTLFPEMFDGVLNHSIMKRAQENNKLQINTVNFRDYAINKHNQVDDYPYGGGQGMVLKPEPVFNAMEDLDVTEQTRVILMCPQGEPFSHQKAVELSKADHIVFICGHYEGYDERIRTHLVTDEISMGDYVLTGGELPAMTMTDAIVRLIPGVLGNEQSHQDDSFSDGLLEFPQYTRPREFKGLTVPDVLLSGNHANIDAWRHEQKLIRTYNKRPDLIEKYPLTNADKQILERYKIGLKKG
As to the kind of experiment: Fluorescence polarization (FP) assay, tracer 4, S. aureus TrmD. On the procedure:
To enable the screening of hundreds of nanomole-scale synthesized compounds, the implementation of a high-throughput-capable RNA methyltransferase (MTase) assay is considered fundamental. […] In this assay format, a fluorescent, SAM-pocket binding tracer can be displaced by the compound under investigation, and the resulting change in fluorescence polarization defines the read-out of the inhibitor compound’s affinity (Figure A).
Fluorescence polarization (FP) assays were performed as follows. The assays for H. influenzae TrmD have been described previously. All assays were conducted in technical triplicate using black 96-well half area plates. For the FP assays, a tracer (20 nM Cy5TPD for E. coli and H. influenzae TrmD, 10 nM tracer 4 for S. aureus TrmD) was mixed with the respective enzyme (2 μM E. coli TrmD, 2 μM H. influenzae TrmD, 500 nM S. aureus TrmD) in buffer (E. coli and H. influenzae TrmD: 50 mM HEPES, 500 mM NaCl, 5% Glycerol, pH 7.5, S. aureus TrmD: 40 mM Tris HCl, 100 mM NaCl, 10 mM MgCl2, 5% Glycerol, pH 7.5). The compounds were added in varying concentrations for K D-value determination. […] The Z-factor for tracer 4 was determined by measuring 48 replicates of the free tracer (positive controls, PC) and 48 replicates of a mixture of enzyme and tracer (negative controls, NC). The Z-factor is defined in terms of the means (μ) and standard deviations (σ) of the positive and negative controls and calculated as Z = 1–(3*(σnc + σpc)/(μnc–μpc)). […] Polarization values (mP) were determined from polarization-specific parallel and orthogonal fluorescence intensities. K D-values were calculated in GraphPad Prism 8.0.1 using the four-parameter Hill equation: y(% tracer bound) = bottom + ([ligand]-slope) × (top–bottom)/([ligand]-slope + K Dslope).

Experiment [2] addresses T1, S. aureus TrmD. Described as above. As to conditions: enzyme concentration varied, read-out: KD of fluorescent tracer, S. aureus TrmD (FP).
In experiment [3] the target is T1, S. aureus TrmD. The experiment is described as follows: nanoSAR direct-to-biology FP displacement screening of crude triazoles. The following applies: crude triazole at 1 μM, assuming full conversion; 500 nM TrmD, 10 nM tracer 4; read-out: % displaced tracer. In outline: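 S. aureus TrmD (500 nM) with tracer 4 (10 nM) in Tris/NaCl/MgCl2/glycerol buffer, pH 7.5, was challenged with unpurified triazoles from in situ CuAAC of alkyne 7 with a 320-member azide library.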

[4] abbreviates: apparent affinity, purified compound, 500 nM TrmD, 10 nM tracer 4, read-out: KD S. aureus TrmD (FP displacement assay).

For `CC(=O)NCCCn1cc(-c2c[nH]c3nc[nH]c(=O)c23)nn1` [Compound 8a, N-(3-(4-(4-Oxo-4,7-dihydro-3H-pyrrolo[2,3-d]pyrimidin-5-yl)-1H-1,2,3-triazol-1-yl)propyl)acetamide], the Kd is 10.4 ± 1.8 µM on S. aureus TrmD [1] (setting [4]) and 4.98 µM at S. aureus TrmD [1] (crude nanomole-scale reaction mixture, read-out: KD(in situ) S. aureus TrmD (FP displacement assay)).

`C#Cc1c[nH]c2nc[nH]c(=O)c12` [Compound 7, 5-Ethynyl-3,7-dihydro-4H-pyrrolo[2,3-d]pyrimidin-4-one]: the Kd on S. aureus TrmD [1] (setting [4]) was greater than 100 µM.

As for `CN1/C(=C/C=C/C=C/C2=[N+](CCCCCC(=O)NCCCn3cc(-c4c[nH]c5nc[nH]c(=O)c45)nn3)c3ccccc3C2(C)C)C(C)(C)c2ccccc21` [Compound 4, 3,3-Dimethyl-1-(6-oxo-6-((3-(4-(4-oxo-4,7-dihydro-3H-pyrrolo[2,3-d]pyrimidin-5-yl)-1H-1,2,3-triazol-1-yl)propyl)amino)hexyl)-2-((1E,3E)-5-((E)-1,3,3-trimethylindolin-2-ylidene)penta-1,3-dien-1-yl)-3H-indol-1-ium trifluoroacetate], at S. aureus TrmD [2], the Kd is 659 nM and 660 nM.

With `CS(=O)(=O)NC(=O)Cn1cc(-c2c[nH]c3nc[nH]c(=O)c23)nn1` [Compound 01G12, S(=O)(=O)(NC(=O)CN1N=NC(C=2C=3C(=O)NC=NC3NC2)=C1)C], the inhibition at 1 µM on S. aureus TrmD [3] was 27%.

`CC(C)NC(=O)[C@H](C)n1cc(-c2c[nH]c3nc[nH]c(=O)c23)nn1` [Compound 03H02, O=C1NC=NC=2NC=C(C=3N=NN(C3)[C@H](C(=O)NC(C)C)C)C12]: at S. aureus TrmD [3], the inhibition at 1 µM is 17%.

For `O=c1[nH]cnc2[nH]cc(-c3cn(Cc4nnc(C5CC5)o4)nn3)c12` [Compound 04E03, O=C1NC=NC=2NC=C(C=3N=NN(C3)CC=4OC(=NN4)C5CC5)C12], the inhibition at 1 µM on S. aureus TrmD [3] turned out to be 44%.

Consider `O=c1[nH]cnc2[nH]cc(-c3cn(C[C@H]4CCC[C@@]5(CCOC5)O4)nn3)c12` [Compound 01A06, O=C1NC=NC=2NC=C(C=3N=NN(C3)C[C@@H]4O[C@@]5(COCC5)CCC4)C12], for which the inhibition at 1 µM on S. aureus TrmD [3] was determined as 52%.

Consider `O=c1[nH]cnc2[nH]cc(-c3cn(-c4ccc5[nH]cnc5c4)nn3)c12` [Compound 03G06, O=C1NC=NC=2NC=C(C=3N=NN(c4cc5N=CNc5cc4)C3)C12], for which, on S. aureus TrmD [3], the inhibition at 1 µM came to 27%.

`O=c1[nH]cnc2[nH]cc(-c3cn(-c4ccc(O)cc4)nn3)c12` [Compound 01G09, O=C1NC=NC=2NC=C(C=3N=NN(c4ccc(O)cc4)C3)C12]: the inhibition at 1 µM on S. aureus TrmD [3] came to 23%.

With `O=c1[nH]cnc2[nH]cc(-c3cn(Cc4cc(C(F)(F)F)on4)nn3)c12` [Compound 01H04, FC(F)(F)C=1ON=C(C1)CN2N=NC(C=3C=4C(=O)NC=NC4NC3)=C2], the inhibition at 1 µM at S. aureus TrmD [3] stood at 22%.

For the compound `O=c1[nH]cnc2[nH]cc(-c3cn(CC4CC(F)(F)C4)nn3)c12` [Compound 02G04, F[C@@]1(F)C[C@@H](CN2N=NC(C=3C=4C(=O)NC=NC4NC3)=C2)C1], the inhibition at 1 µM on S. aureus TrmD [3] came to 15%.

Consider `O=c1[nH]cnc2[nH]cc(-c3cn(Cc4nc5ccccc5o4)nn3)c12` [Compound 02G05, O=C1NC=NC=2NC=C(C=3N=NN(C3)CC=4Oc5c(N4)cccc5)C12], for which the inhibition at 1 µM at S. aureus TrmD [3] stood at 38%.

Turning to `O=c1[nH]cnc2[nH]cc(-c3cn(C[C@H](O)c4ccc(Cl)cc4)nn3)c12` [Compound 02C04, Clc1ccc(cc1)[C@@H](O)CN2N=NC(C=3C=4C(=O)NC=NC4NC3)=C2], on S. aureus TrmD [3], the inhibition at 1 µM turned out to be 85%.

Turning to `CC(C)n1cc(-c2c[nH]c3nc[nH]c(=O)c23)nn1` [Compound 01A05, O=C1NC=NC=2NC=C(C=3N=NN(C3)C(C)C)C12], at S. aureus TrmD [3], the inhibition at 1 µM was 23%.

Take `NC[C@H]1CCC[C@@H](Cn2cc(-c3c[nH]c4nc[nH]c(=O)c34)nn2)C1` [Compound 02A02, O=C1NC=NC=2NC=C(C=3N=NN(C3)C[C@H]4C[C@@H](C[NH3+])CCC4)C12]: the inhibition at 1 µM on S. aureus TrmD [3] amounted to 31%.

As to `O=c1[nH]cnc2[nH]cc(-c3cn(Cc4cn5cccnc5n4)nn3)c12` [Compound 02C07, O=C1NC=NC=2NC=C(C=3N=NN(C3)CC=4N=C5N=CC=CN5C4)C12], the inhibition at 1 µM at S. aureus TrmD [3] was determined as 82%.

Take `Cc1cc(Cn2cc(-c3c[nH]c4nc[nH]c(=O)c34)nn2)no1` [Compound 03F02, O=C1NC=NC=2NC=C(C=3N=NN(C3)CC4=NOC(=C4)C)C12]: the inhibition at 1 µM on S. aureus TrmD [3] turned out to be 35%.

Turning to `O=c1[nH]cnc2[nH]cc(-c3cn(C[C@@H]4CCOC4)nn3)c12` [Compound 02D06, O=C1NC=NC=2NC=C(C=3N=NN(C3)C[C@H]4COCC4)C12], the inhibition at 1 µM on S. aureus TrmD [3] was 26%.

Consider `CCNCCn1cc(-c2c[nH]c3nc[nH]c(=O)c23)nn1` [Compound 03E05, O=C1NC=NC=2NC=C(C=3N=NN(C3)CC[NH2+]CC)C12], for which the inhibition at 1 µM at S. aureus TrmD [3] came out at 87%.

Consider `O=c1[nH]cnc2[nH]cc(-c3cn(C4CCCCC4)nn3)c12` [Compound 02A08, O=C1NC=NC=2NC=C(C=3N=NN(C3)C4CCCCC4)C12], for which the inhibition at 1 µM on S. aureus TrmD [3] was 11%.

For the compound `Cc1ccc2nc(Cn3cc(-c4c[nH]c5nc[nH]c(=O)c45)nn3)cn2c1` [Compound 01B02, O=C1NC=NC=2NC=C(C=3N=NN(C3)CC=4N=C5N(C4)C=C(C=C5)C)C12], the inhibition at 1 µM at S. aureus TrmD [3] amounted to 57%.

Take `O=c1[nH]cnc2[nH]cc(-c3cn(-c4ccncc4)nn3)c12` [Compound 02C12, O=C1NC=NC=2NC=C(C=3N=NN(c4ccncc4)C3)C12]: the inhibition at 1 µM at S. aureus TrmD [3] was determined as 18%.

With `Cc1ccc(-n2cc(-c3c[nH]c4nc[nH]c(=O)c34)nn2)cc1Cl` [Compound 02B03, Clc1c(ccc(N2N=NC(C=3C=4C(=O)NC=NC4NC3)=C2)c1)C], the inhibition at 1 µM at S. aureus TrmD [3] is 0.61%.

For the compound `O=c1[nH]cnc2[nH]cc(-c3cn(-c4ccc(Cl)cn4)nn3)c12` [Compound 02C03, Clc1cnc(N2N=NC(C=3C=4C(=O)NC=NC4NC3)=C2)cc1], the inhibition at 1 µM on S. aureus TrmD [3] is -1.83%.

As for `CC(C)(C)O[C@H]1C[C@@H](n2cc(-c3c[nH]c4nc[nH]c(=O)c34)nn2)C1` [Compound 02F01, O=C1NC=NC=2NC=C(C=3N=NN(C3)[C@@H]4C[C@H](OC(C)(C)C)C4)C12], the inhibition at 1 µM at S. aureus TrmD [3] was 21%.

Consider `O=c1[nH]cnc2[nH]cc(-c3cn(-c4cc(F)cc(F)c4)nn3)c12` [Compound 03F09, Fc1cc(F)cc(N2N=NC(C=3C=4C(=O)NC=NC4NC3)=C2)c1], for which, on S. aureus TrmD [3], the inhibition at 1 µM was 25%.

On to `O=C(Cn1cc(-c2c[nH]c3nc[nH]c(=O)c23)nn1)NCc1ccccc1` [Compound 03A03, O=C1NC=NC=2NC=C(C=3N=NN(C3)CC(=O)NCc4ccccc4)C12], for which, on S. aureus TrmD [3], the inhibition at 1 µM stood at 36%.

With `Cc1csc(C[C@H](C)n2cc(-c3c[nH]c4nc[nH]c(=O)c34)nn2)n1` [Compound 01E11, S1C(=NC(=C1)C)C[C@@H](N2N=NC(C=3C=4C(=O)NC=NC4NC3)=C2)C], the inhibition at 1 µM at S. aureus TrmD [3] was found to be 31%.

For the compound `O=c1[nH]cnc2[nH]cc(-c3cn(-c4ccccc4Cl)nn3)c12` [Compound 02F03, Clc1c(N2N=NC(C=3C=4C(=O)NC=NC4NC3)=C2)cccc1], on S. aureus TrmD [3], the inhibition at 1 µM was found to be 22%.

For the compound `O=c1[nH]cnc2[nH]cc(-c3cn(CCCO)nn3)c12` [Compound 01G05, O=C1NC=NC=2NC=C(C=3N=NN(C3)CCCO)C12], the inhibition at 1 µM on S. aureus TrmD [3] was 32%.

With `Cc1nc2ccc(-n3cc(-c4c[nH]c5nc[nH]c(=O)c45)nn3)cc2s1` [Compound 01F07, S1c2c(N=C1C)ccc(N3N=NC(C=4C=5C(=O)NC=NC5NC4)=C3)c2], the inhibition at 1 µM at S. aureus TrmD [3] came to 11%.

Take `CCOC(=O)C12CC(Cn3cc(-c4c[nH]c5nc[nH]c(=O)c45)nn3)(C1)OC21CCOCC1` [Compound 03D04, O=C(OCC)C12C3(OC(CN4N=NC(C=5C=6C(=O)NC=NC6NC5)=C4)(C1)C2)CCOCC3]: on S. aureus TrmD [3], the inhibition at 1 µM stood at 51%.

With `CN1CCN(CCn2cc(-c3c[nH]c4nc[nH]c(=O)c34)nn2)CC1` [Compound 03G10, O=C1NC=NC=2NC=C(C=3N=NN(C3)CC[N@H+]4CC[N@@H+](CC4)C)C12], the inhibition at 1 µM at S. aureus TrmD [3] amounted to 11%.

For `O=c1[nH]cnc2[nH]cc(-c3cn([C@H]4COC[C@@H]4n4cccn4)nn3)c12` [Compound 04D04, O=C1NC=NC=2NC=C(C=3N=NN(C3)[C@@H]4[C@@H](N5N=CC=C5)COC4)C12], the inhibition at 1 µM at S. aureus TrmD [3] came to 51%.

For the compound `N#CC1(Cn2cc(-c3c[nH]c4nc[nH]c(=O)c34)nn2)CCCCC1` [Compound 03E07, O=C1NC=NC=2NC=C(C=3N=NN(C3)CC4(C#N)CCCCC4)C12], the inhibition at 1 µM at S. aureus TrmD [3] worked out at 69%.
